In brackets after ≈: the same amount, converted by molar mass. Read-outs that look alike come from different tables or passages of the source. Where only a bound is given, the exact number is not on record here.

Experiment [1] has as its system methicillin-sensitive Staphylococcus aureus. Kind of experiment: MIC by broth micro-dilution (CLSI), methicillin-sensitive S. aureus. The experiment is classed as cell-based. As to conditions: MSSA S. aureus ATCC29213. On the technique in general: Broth dilution looks for growth in wells or tubes with falling amounts of substance.
Experiment [2] relates to carbapenem sensitive Escherichia coli. The experiment can be described thus: MIC by broth micro-dilution (CLSI), carbapenem sensitive E. coli. The experiment is classed as cell-based.
Experiment [3] relates to carbapenem sensitive Pseudomonas aeruginosa. Kind of experiment: MIC by broth micro-dilution (CLSI), carbapenem sensitive P. aeruginosa. The experiment is classed as cell-based. As to conditions: Pseudomonas aeruginosa, ATCC27853, Meropenem susceptible P. aeruginosa ATCC27853; read-out: MIC.
Experiment [4] deals with carbapenemase producing K. pneumoniae. The experiment can be described thus: MIC by broth micro-dilution (CLSI), carbapenemase producing K. pneumoniae. It counts as cell-based, Klebsiella pneumoniae.
The mark [5] stands for this setting: Staphylococcus aureus, ATCC 29213 / MSSA, read-out: MIC.
The mark [6] stands for this setting: Escherichia coli, ATCC25922, ESBL −ve E. coli ATCC25922, read-out: MIC.
[7] abbreviates: Klebsiella pneumoniae, ATCCBAA1705, KPC-2 K. pneumoniae ATCC BAA-1705, read-out: MIC.
[8] abbreviates: KPC-2 K. pneumoniae ATCC BAA-1705.

As a reminder, the MIC is the lowest concentration found to suppress growth. Consider `C[C@@H](NC(=O)Cn1nnnc1C(F)F)[C@H]1C(=O)N2C(C(=O)O)=C(S[C@@H]3CN[C@H](C(=O)N(C)C)C3)[C@H](C)[C@H]12` [Example 350, (4R,5S,6R)-6-((R)-1-(2-(5-(difluoromethyl)-1H-tetrazol-1-yl)acetamido)ethyl)-3-((3S,5S)-5-(dimethylcarbamoyl)pyrrolidin-3-ylthio)-4-methyl-7-oxo-1-azabicyclo[3.2.0]hept-2-ene-2-carboxylic acid], for which the minimal inhibitory concentration (MIC) in experiment [1] (setting [5]) came to 2 µg/mL (≈ 3.69 µM); in experiment [2] (setting [6]) it was 0.25 µg/mL (≈ 0.461 µM); in experiment [3], 128 µg/mL (≈ 236 µM); in experiment [4] (setting [7]), 1 µg/mL (≈ 1.84 µM).
The matching figures for `C[C@@H](NC(=O)Cn1cnnn1)[C@H]1C(=O)N2C(C(=O)O)=C(S[C@@H]3CN[C@H](C(=O)N4CC(F)(CN)C4)C3)[C@H](C)[C@H]12` [Example 344, (4R,5S,6R)-6-((R) - 1-(2-(1H-tetrazol-1-yl)acetamido)ethyl)-3-((3S,5S)-5-(3-(aminomethyl)-3-fluoroazetidine-1-carbonyl)pyrrolidin-3-ylthio)-4-methyl-7-oxo-1-azabicyclo[3.2.0]hept-2-ene-2-carboxylic acid]: 16 µg/mL (≈ 29 µM), 1 µg/mL (≈ 1.81 µM), 16 µg/mL (≈ 29 µM) and 16 µg/mL (≈ 29 µM).
The matching figures for `C[C@@H](NC(=O)Cn1cnnn1)[C@H]1C(=O)N2C(C(=O)O)=C(S[C@@H]3CN[C@H](C(=O)N4CCN(C(=N)N)CC4)C3)[C@H](C)[C@H]12` [Example 367, (4R,5S,6R)-6-((R)-1-(2-(1H-tetrazol-1-yl)acetamido)ethyl)-3-((3S,5S)-5-(4-carbamimidoylpiperazine-1-carbonyl)pyrrolidin-3-ylthio)-4-methyl-7-oxo-1-azabicyclo[3.2.0]hept-2-ene-2-carboxylic acid]: 2 µg/mL (≈ 3.47 µM), 0.25 µg/mL (≈ 0.434 µM), 1 µg/mL (≈ 1.74 µM) and 2 µg/mL (≈ 3.47 µM).
The matching figures for `C[C@@H](NC(=O)Cn1cnnn1)[C@H]1C(=O)N2C(C(=O)O)=C(S[C@@H]3CN[C@H](C(=O)N4CC(N)(CC#N)C4)C3)[C@H](C)[C@H]12` [Example 424, (4R,5S,6R)-6-((R)-1-(2-(1H-tetrazol-1-yl)acetamido)ethyl)-3-((3S,5S)-5-(3-amino-3-(cyanomethyl)azetidine-1-carbonyl)pyrrolidin-3-ylthio)-4-methyl-7-oxo-1-azabicyclo[3.2.0]hept-2-ene-2-carboxylic acid]: 16 µg/mL (≈ 28.6 µM), 0.25 µg/mL (≈ 0.448 µM), 16 µg/mL (≈ 28.6 µM) and 2 µg/mL (≈ 3.58 µM).
As to `C[C@@H](NC(=O)Cn1cnnn1)[C@H]1C(=O)N2C(C(=O)O)=C(S[C@@H]3CN[C@H](C(=O)N4CC5C[C@H]6C[C@@]5(CN6)C4)C3)[C@H](C)[C@H]12` (stereo partly drawn) [Example 541, (4R,5S,6R)-6-((R)-1-(2-(1H-tetrazol-1-yl)acetamido)ethyl)-3-((3S,5S)-5-((1R,7S)-3,8-Diaza-tricyclo[5.2.1.01,5]decane-3-carbonyl)pyrrolidin-3-ylthio)-4-methyl-7-oxo-1-azabicyclo[3.2.0]hept-2-ene-2-carboxylic acid], the minimal inhibitory concentration (MIC) was 2 µg/mL (≈ 3.41 µM) in experiment [1] (setting [5]), 0.25 µg/mL (≈ 0.427 µM) in experiment [2] (setting [6]), 1 µg/mL (≈ 1.71 µM) in experiment [3] and 1 µg/mL (≈ 1.71 µM) in experiment [4] (setting [7]).
Turning to `C[C@@H](NC(=O)Cn1cnnn1)[C@H]1C(=O)N2C(C(=O)O)=C(S[C@@H]3CN[C@H](C(=O)N4C[C@H](N)[C@H](NC(=N)N)C4)C3)[C@H](C)[C@H]12` [Example 565, (4R,5S,6R)-6-((R)-1-(2-(1H-tetrazol-1-yl)acetamido)ethyl)-3-((3S,5S)-5-((3S,4R)-3-amino-4-guanidinopyrrolidine-1-carbonyl)-pyrrolidin-3-ylthio)-4-methyl-7-oxo-1-azabicyclo[3.2.0]hept-2-ene-2-carboxylic acid], the MIC in experiment [1] (setting [5]) stood at 2 µg/mL (≈ 3.39 µM); in experiment [2] (setting [6]), 0.25 µg/mL (≈ 0.423 µM); in experiment [3] it was 1 µg/mL (≈ 1.69 µM); in experiment [4] (setting [7]) it was 2 µg/mL (≈ 3.39 µM).
In the case of `C[C@@H](NC(=O)Cn1cnnn1)[C@H]1C(=O)N2C(C(=O)O)=C(S[C@@H]3CN[C@H](C(=O)N4C[C@@H](O)[C@H](N)[C@H]4CO)C3)[C@H](C)[C@H]12` [Example 548, (4R,5S,6R)-6-((R)-1-(2-(1H-tetrazol-1-yl)acetamido)ethyl)-3-((3S,5S)-5-((2S,3R,4R)-3-amino-4-hydroxy-2-(hydroxymethyl)pyrrolidine-1-carbonyl)pyrrolidin-3-ylthio)-4-methyl-7-oxo-1-azabicyclo[3.2.0]hept-2-ene-2-carboxylic acid], the MIC was determined as 8 µg/mL (≈ 13.8 µM) in experiment [1] (setting [5]), 0.25 µg/mL (≈ 0.431 µM) in experiment [2] (setting [6]), 4 µg/mL (≈ 6.9 µM) in experiment [3] and 1 µg/mL (≈ 1.73 µM) in experiment [4] (setting [7]).
The matching figures for `C[C@@H](NC(=O)Cn1cnnn1)[C@H]1C(=O)N2C(C(=O)O)=C(S[C@@H]3CN[C@H](C(=O)N4CCC(N5CC[C@@H](N)C5)CC4)C3)[C@H](C)[C@H]12` [Example 409, (4R,5S,6R)-6-((R)-1-(2-(1H-tetrazol-1-yl)acetamido)ethyl)-3-((3S,5S)-5-(4-((R)-3-aminopyrrolidin-1-yl)piperidine-1-carbonyl)pyrrolidin-3-ylthio)-4-methyl-7-oxo-1-azabicyclo[3.2.0]hept-2-ene-2-carboxylic acid]: 4 µg/mL (≈ 6.49 µM), 1 µg/mL (≈ 1.62 µM), 4 µg/mL (≈ 6.49 µM) and 2 µg/mL (≈ 3.24 µM).
The matching figures for `C[C@@H](NC(=O)Cn1nnnc1-c1cccs1)[C@H]1C(=O)N2C(C(=O)O)=C(S[C@@H]3CN[C@H](C(=O)N(C)C)C3)[C@H](C)[C@H]12` [Example 357, (4R,5S,6R)-3-((3S,5S)-5-(dimethylcarbamoyl)pyrrolidin-3-ylthio)-4-methyl-7-oxo-6-((R)-1-(2-(5-(thiophen-2-yl)-1H-tetrazol-1-yl)acetamido)ethyl)-1-azabicyclo[3.2.0]hept-2-ene-2-carboxylic acid]: 2 µg/mL (≈ 3.48 µM), 1 µg/mL (≈ 1.74 µM), > 128 µg/mL and 32 µg/mL (≈ 55.7 µM).
The matching figures for `C[C@@H](NC(=O)Cn1cnnn1)[C@H]1C(=O)N2C(C(=O)O)=C(S[C@@H]3CN[C@H](C(=O)N4CCC(C(=O)N5CCNCC5)CC4)C3)[C@H](C)[C@H]12` [Example 430, (4R,5S,6R)-6-((R)-1-(2-(1H-tetrazol-1-yl)acetamido)ethyl)-4-methyl-7-oxo-3-((3S,5S)-5-(4-(piperazine-1-carbonyl)piperidine-1-carbonyl)pyrrolidin-3-ylthio)-1-azabicyclo[3.2.0]hept-2-ene-2-carboxylic acid]: 4 µg/mL (≈ 6.2 µM), 0.5 µg/mL (≈ 0.775 µM), 4 µg/mL (≈ 6.2 µM) and 2 µg/mL (≈ 3.1 µM).
For the molecule `C[C@@H](NC(=O)Cn1cnnn1)[C@H]1C(=O)N2C(C(=O)O)=C(S[C@@H]3CN[C@H](C(=O)N4CCN(C(=O)[C@@H](N)CN)CC4)C3)[C@H](C)[C@H]12` [Example 456, (4R,5S,6R)-6-((R)-1-(2-(1H-tetrazol-1-yl)acetamido)ethyl)-3-((3S,5S)-5-(4-((S)-2,3-diaminopropanoyl)piperazine-1-carbonyl)pyrrolidin-3-ylthio)-4-methyl-7-oxo-1-azabicyclo[3.2.0]hept-2-ene-2-carboxylic acid], the MIC is 2 µg/mL (≈ 3.23 µM) in experiment [1] (setting [5]), 0.5 µg/mL (≈ 0.807 µM) in experiment [2] (setting [6]), 2 µg/mL (≈ 3.23 µM) in experiment [3] and 2 µg/mL (≈ 3.23 µM) in experiment [4] (setting [7]).
For `CNCC(=O)N[C@H](C)[C@H]1C(=O)N2C(C(=O)O)=C(S[C@@H]3CN[C@H](C(=O)N4CC[C@H](n5ncnn5)C4)C3)[C@H](C)[C@H]12` [Example 310, (4R,5S,6R)-3-((3S,5S)-5-((S)-3-(2H-tetrazol-2-yl)pyrrolidine-1-carbonyl)pyrrolidin-3-ylthio)-4-methyl-6-((R) - 1-(2-(methylamino)acetamido)ethyl)-7-oxo-1-azabicyclo[3.2.0]hept-2-ene-2-carboxylic acid], the minimal inhibitory concentration (MIC) in experiment [1] (setting [5]) amounted to 32 µg/mL (≈ 58.4 µM); in experiment [2] (setting [6]) it was 1 µg/mL (≈ 1.83 µM); in experiment [3] it was 64 µg/mL (≈ 117 µM); in experiment [4] (setting [7]), 4 µg/mL (≈ 7.3 µM).
For the molecule `C[C@@H](NC(=O)Cn1cnnn1)[C@H]1C(=O)N2C(C(=O)O)=C(S[C@@H]3CN[C@H](C(=O)N4CCOC(CN)C4)C3)[C@H](C)[C@H]12` (stereo in doubt) [Example 461, (4R,5S,6R)-6-((R)-1-(2-(1H-tetrazol-1-yl)acetamido)ethyl)-3-((3S,5S)-5-((S)-2-(aminomethyl)morpholine-4-carbonyl)pyrrolidin-3-ylthio)-4-methyl-7-oxo-1-azabicyclo[3.2.0]hept-2-ene-2-carboxylic acid], the results for the MIC in experiment [1], in experiment [2] (ESBL −ve E. coli ATCC25922) and in experiment [4] (setting [8]) were 4 µg/mL (≈ 7.1 µM), 0.5 µg/mL (≈ 0.887 µM) and 2 µg/mL (≈ 3.55 µM), respectively.
The matching figures for `C[C@@H](NC(=O)Cn1cnnn1)[C@H]1C(=O)N2C(C(=O)O)=C(S[C@@H]3CN[C@H](C(=O)N4CC5CC(CO)NC5C4)C3)[C@H](C)[C@H]12` (single isomer, unassigned) [Example 552]: 4 µg/mL (≈ 6.78 µM), 0.25 µg/mL (≈ 0.424 µM) and 2 µg/mL (≈ 3.39 µM).
Turning to `C[C@@H](NS(C)(=O)=O)[C@H]1C(=O)N2C(C(=O)O)=C(S[C@@H]3CN[C@H](C(=O)N(C)C)C3)[C@H](C)[C@H]12` [Example 1, (4R,5S,6S)-3-((3S,5S)-5-(Dimethylcarbamoyl)pyrrolidin-3-ylthio)-4-methyl-6-((R)-1-(methylsulfonamido)ethyl)-7-oxo-1-azabicyclo[3.2.0]hept-2-ene-2-carboxylic acid], the MIC in experiment [1] (setting [5]) fell in the range of 8 to 16 µg/mL (≈ 17.4 to 34.7 µM); in experiment [2] (setting [6]), 0.25 to 1 µg/mL (≈ 0.543 to 2.17 µM); in experiment [3], 32 to 64 µg/mL (≈ 69.5 to 139 µM).

For the origin of these results see patent US11180504B2 (ORCHID PHARMA LTD., priority 2016, dated 2021).
